From patent US11795144B2, “Inhibitors of RAC1 and uses thereof for treating cancers” (INSTITUT NATIONAL DE LA SANTE ET DE LA RECHERCHE MEDICALE …, priority 2017, dated 2023)
“Also recorded” adds a separate entry of the source.

How the values were obtained:
fibroblast = test: Cell adhesion assay using impedance technology (xCELLigence); assay type: cell-based; settings: fibroblasts pre-treated with 10 μm
From the text: (§1) FIGS. 1 to 3 relate to the inhibition of the Rac-induced cell functions by compound (2) (or A4.1). […] Ruffles are indicated by arrows (left panel). Percentages of cells with ruffles were quantified (right panel). Results shown are representative of 3 independent experiments. […] Left panel, representative records with arrows indicating the cell location at different times. Right panel, quantification of cell speed in each experimental conditions. Results shown are representative of 2 independent experiments. […] Lower panel, quantification of cell adhesion. Results shown are representative of 3 independent experiments.
Cells (10000/well) were seeded in a 96 well plate microtiter xCELLigence assay plate (E-Plate) (ACEA Biosciences Inc.) and placed on the Real-time xCELLigence Cell Analyzer (Roche Applied Science) platform at 37° C. to measure the “cell index” every 5 min for a period of 6 hours. The cell index unit is defined as (Rn−Rb)/15. Rn is the cell electrode impedance of the well when it contains cells. Rb is the background impedance of the well with the media alone.

RAC1 = RAC1 (Homo sapiens, UniProt P63000)
[1] = Pharmacokinetics after intraperitoneal injection; assay type: in vivo, male C57BL6 adult mice; settings: male, C57BL6, mouse, plasma; IP route, mice
Description: FIG. 5 relates to the pharmacokinetics of compound (2) by analyzing kidney, brain, liver, heart, plasma samples, and lungs from male C57BL6 adult mice after intraperitonal injection. The curves of this Figure represent the concentration in μg/g over time in minutes.
(§2) To test whether compound (2) would have an acceptable therapeutic index in vivo, the pharmacokinetics of compound (2) were measured by analyzing plasma samples, brain, heart, kidney, liver and lungs from male C57BL6 adult mice after intraperitonal injection (IP) (FIG. 5). In addition, we evaluated the effect of chronic (daily during 4 weeks) IP injections of compound (2) on physiological parameters: body weight, glycemia, hepatic and renal functions (FIGS. 6 to 8).

MDA-MB-468 = test: Cancer cell invasion in 3D gel; assay type: cell-based; settings: 10 μM, after 48 h
Description: (§3) FIG. 4 relates to the inhibition of the Rac-dependent cell functions involved in cancer cells by (2). FIG. 4A: Breast cancer cell line MDA-MB-468 and primary human fibroblast from breast cancer tumors were seeded in 3D-gel containing or not (2). […] FIG. 4B: Effect of (2) on foci assay.
(§4) To confirm this hypothesis, cancer cells invasion was analyzed in 3D gel. The breast cancer cell line MDA-MB-468 or primary fibroblasts from human breast cancer were seeded in gels containing or not (2) (10 μM).

MCF-7 cells = test: Primary focus formation assay; assay type: cell-based; settings: MCF-7, 3 weeks of treatment
Description: For primary focus formation assays, MCF-7 cells were plated at a density of 10^5 cells/well of a 6-well plate. Cells were allowed to reach confluency and were maintained on complete growth medium supplemented with indicated concentration of A4.1 (or compound (2)) or vehicle until focus formation occurred. Foci of transformed cells was quantitated after 21 days.
Malignant transformation of cells is typically associated with increased proliferation, loss of contact inhibition, acquisition of anchorage-independent growth potential, and the ability to form foci in culture cells. A focus formation assay was used to test whether (2) affects the clonogenic potential of breast cancer cells MCF-7. After 3 weeks of treatments, the cells's foci were fixed, stained and counted ([…]).

Rac^V12 = molecular target: T1, Rac^V12 (Homo sapiens, UniProt P63000, G12V); test: Ruffle formation and membrane location of constitutive active RFP-Rac^V12 in fibroblasts; assay type: cell-based
T1 construct: expressed in transfected cells; host or cells: NIH3T3
Description: (§5) cDNA coding for constitutive active Rac1 (Rac^V12-RFP) were transfected in NIH3T3 with jetPEI (Polyplus transfection) according to the manufacturer's instructions. After treatments, fibroblasts were fixed with 4% paraformaldehyde in PBS, permeabilized in PBS 0.5% Triton X-100, and incubated with 130 μg/mL of FITC-conjugated phalloidin (Sigma) to visualize F-actin. After staining, images were captured by a fluorescence microscope (Nikon). The actin cytoskeleton organization was analyzed to observe Rac1-dependent ruffle formation.
Rac1 over activity is implicated in various steps of oncogenesis including initiation, progression, invasion, and metastasis. The ability of (2) to inhibit a constitutive active mutant of Rac1, Rac^V12 was evaluated. In control condition, expression of RFP-Rac^V12 in fibroblasts induces changes in actin cytoskeleton leading to ruffles formation (data not shown). This effect is prevented by (2) (10 μM).

[2] = tested on: MDA-MB-468 (Luciferase+) cell line; test: Metastasis in xenograft mouse tumor model; assay type: in vivo, NMRI mice; settings: 25 mg/kg/d IP during 4 weeks after exeresis of primary tumor
Description: FIG. 9 relates to the in vivo efficiency of compound (2) to inhibit metastasis in a xenograft mouse tumor model using MDA-MB-468 (Luciferase+) cell line in 5-week-old NMRI mice.
The in vivo efficiency of compound (2) to inhibit metastasis was evaluated in a xenograft mouse tumor model using MDA-MB-468 (Luciferase+) cell line in 5-week-old NMRI mice. When the tumor volume reached 1,000 mm^3, exeresis of the primary tumor was done to monitor predominantly metastasis initiation and progression. Compound (2) was administered everyday via intraperitoneal injection (25 mg/kg/d) during 4 weeks. Then, xenografted mice were sacrified and organs were imaged (FIGS. 9A and 9B).

Rac = Rac activator-induced membrane ruffling (actin reorganization) in 3T3 fibroblasts; assay type: cell-based; settings: 3T3 cells, compound added 1 h before Rac activation
From the text: as §1, §5

[3] = Chronic IP injections: body weight, glycemia, hepatic and renal functions; assay type: in vivo, mice; settings: 25 mg/kg IP daily during 4 weeks
Description: FIGS. 6 to 8 relate to the effect of chronic IP injections of compound (2) on physiological parameters: body weight, glycemia, hepatic and renal functions.
as §2

3T3 cells = test: Unidirectional cell migration (cell speed); assay type: cell-based
From the text: Percentages of cells with ruffles were quantified (right panel). Results shown are representative of 3 independent experiments. […] Left panel, representative records with arrows indicating the cell location at different times. Right panel, quantification of cell speed in each experimental conditions. Results shown are representative of 2 independent experiments. […] Lower panel, quantification of cell adhesion. Results shown are representative of 3 independent experiments.
Cells (1000/well) were seeded in a 96 well plate with […] fibronectin stripes (CytooPlates Motility, CYTOO) in medium with 1% SVF and allowed to spread for 4 hours before capturing time-lapse images for 24 hours (image/10 minutes) on a Widefield Leica DMI 6000B drove with Metamorph software. Cells speed was measured with ImageJ software.

[4] = tested on: primary fibroblasts from human breast cancer; test: Invasion in 3D gel of primary fibroblasts from breast cancer; assay type: cell-based; settings: 10 μM, after 48 h
Description: as §3, §4

IC50 (RAC1) [nM]	Relative activity (NSC23766) (RAC1; compared with NSC23766)	bioavailability [1] [%]	IC50 (MCF-7 cells; Homo sapiens, MCF7, 504 h) [nM]	Ruffles formation induced by RFP-Rac^V12 (Rac^V12; 10 μM)	SMILES	Cell adhesion (fibroblast)	Decrease of cell invasion compared to control (MDA-MB-468) [%]	Focus diameter and focus numbers compared with control cells (MCF-7 cells)	Location of Rac^V12 at the plasma membrane (Rac^V12)	Metastases [2]	Efficiency of Rac activator to induce ruffle / actin reorganization (Rac)	Efficiency of Rac activator to induce ruffle / actin reorganization (Rac; listed as A4.1)	Side effects after chronic injection [3]	Cell migration (cell speed) (3T3 cells)	Decrease of cell invasion compared to control [4] [%]
					CCN(CC)CCCC(C)Nc1nc(C)cc(Nc2ccc3nc(C)cc(N)c3c2)n1 (stereo not shown) [NSC23766, reference compound]	slow down									
0.1	>				COc1ccc(OC)c(NS(=O)(=O)c2ccc(NC(=O)CCCc3ccc(C)cc3)cc2)c1 [(3), N-(4-(N-(2,5-dimethoxyphenyl)sulfamoyl)phenyl)-4-(p-tolyl) Butanamide]										
		81.5	2.3	prevented	COc1ccc(OC)c(NS(=O)(=O)c2ccc(NC(=O)CCSc3ccc(C)cc3)cc2)c1 [Compound (2), N-(4-(N-(2,5-dimethoxyphenyl)sulfamoyl)phenyl)-3-(p-tolylthio)propanamide]	decreases cell adhesion; also recorded: higher inhibition	> 50	smaller focus diameter as well as focus numbers	limits the location of Rac^V12 at the plasma membrane	decreases significantly bone, hepatic, uterine and ovarian metastases	strongly decreased	blocks Rac activator-induced actin reorganization	no major side effects	decreases cell migration; also recorded: higher inhibition	> 50
